Results from patent US9930887B2, “Compound for increasing amino acid content in plant, and use thereof” (Okayama Prefecture, priority 2011, dated 2018).
Like-named read-outs stand apart in the source and are kept apart here.

Assays:
Arabidopsis [1] = assay type: in vivo, Arabidopsis thaliana; settings: 1 mM GSSG, 2 mM GSH or 3 mM NH4NO3, 25 mL per pot to roots once a week
Arabidopsis [2] = assay type: in vivo, Arabidopsis thaliana
Japanese mustard spinach = settings: 28 days
Procedure: (§1) As a cultivation temperature, two types of a low temperature condition LT (Low Temperature: light period 20° C./dark period 15° C.) and a high temperature condition HT (High Temperature: light period 25° C./dark period 20° C.) were set. […] Specifically, a single individual was put into each pot having about […], and 25 mL of each solution was provided to roots of each pot once a week. In the same way as Example 1, a leaf (or a terrestrial part) was measured as a sample in a cation mode and an anion mode of CE-TOFMS (capillary electrophoresis-time-of-flight mass spectrometry: Agilent CE-TOFMS system (Agilent technologies)). By comparing a detected peak with database on the basis of m/Z and a migration period, an amino acid was searched, identified, and quantified.

spinach = test: Free amino acid content in spinach under cultivation temperature control; assay type: in vivo, Spinacia oleracea; settings: 28 days
Procedure: as §1, with “A cultivation condition of spinach, which was a vegetable of the goosefoot family (Chenopodioideae), supplied with glutathione was examined. After spinach was seeded, sprouts germinated to a similar extent were selected, were cultivated in an incubator (light period: 14 hours/dark period: 10 hours, light intensity: about 250 μE/m^2/s), and were sampled after 28 days. As” for “As”

garland chrysanthemum = test: Free amino acid content in garland chrysanthemum at various glutathione concentrations; assay type: in vivo, Chrysanthemum coronarium; settings: 28 days
Procedure: An effect on amino acid contents of garland chrysanthemum which was vegetable of the composite family (Compositae), to which garland chrysanthemum glutathione having various concentrations was supplied, was examined. After garland chrysanthemum was seeded, sprouts germinated similarly were selected, were cultivated in an incubator (light period: 14 hours, 20° C./dark period: 10 hours, 15° C., light intensity: about 250 μE/m^2/s), and were sampled after 28 days. As a medium, a soil formed by placing vermiculite (Asahi industrial corporation) as a lower layer, KUREHA seedling raising soil (KUREHA CORPORATION) as a middle layer, and vermiculite (Asahi industrial corporation) as an upper layer at a ratio of 2:1:1 in lamination was used.
In this experiment, only water (Cont.), 0.1 mM, 0.2 mM, 0.5 mM, 1 mM, 2 mM, and 5 mM of oxidized glutathione (GSSG) solutions were provided to plants.

[3] = low temperature condition (light 20° C./dark 15° C.), 2 mM GSH
[4] = high temperature condition (light 25° C./dark 20° C.), 1 mM GSSG

**Q.** How did the “total free amino acid content relative to control condition (only water)” value (Arabidopsis [1]; plants after 4 weeks from seeding) turn out when `N[C@@H](CCC(=O)N[C@@H](CS)C(=O)NCC(=O)O)C(=O)O` [GSH, reduced glutathione] was run?
**A.** Its value is “about 2.9 times”.

**Q.** What about the “total free amino acid content relative to control condition (only water)” value (Arabidopsis [1]; plants after 5 weeks from seeding) of the same compound?
**A.** The value was “about 2.4 times”.

**Q.** And the “asparagine content in a leaf” value (Arabidopsis [2]; effect larger in leaf before photoirradiation (L0), 1 mM GSSG, 2 mM GSH, 3 mM NH4NO3)?
**A.** Its value is “largely increased”.

**Q.** And the “serine content in a leaf” value (Arabidopsis [2]; treatment combined with photoirradiation for 8 hours (L8, 100 μE/m^2/s), 1 mM GSSG, 2 mM GSH, 3 mM NH4NO3)?
**A.** Its value is “remarkably increased”.

**Q.** And the “GABA content relative to control” value (Japanese mustard spinach; [3])?
**A.** The value was at least 2 times.

**Q.** And the “arginine content relative to control” value (Japanese mustard spinach; [3])?
**A.** Its value is at least 2 times.

**Q.** And the “asparagine content relative to control” value (Japanese mustard spinach; [3])?
**A.** Its value is at least 2 times.

**Q.** What about the “aspartic acid content relative to control” value (Japanese mustard spinach; [3]) of the same compound?
**A.** The value was at least 2 times.

**Q.** What about the “glutamine content relative to control” value (Japanese mustard spinach; [3]) of the same compound?
**A.** Its value is at least 2 times.

**Q.** And the “isoleucine content relative to control” value (Japanese mustard spinach; [3])?
**A.** Its value is at least 2 times.

**Q.** What about the “threonine content relative to control” value (Japanese mustard spinach; [3]) of the same compound?
**A.** Its value is at least 2 times.

**Q.** With oxidized glutathione [GSSG] as the compound, how does the “asparagine content in a leaf” value (Arabidopsis [2]; in vivo) read?
**A.** Its value is “largely increased”.

**Q.** What about the “serine content in a leaf” value (Arabidopsis [2]; in vivo) of the same compound?
**A.** Its value is “remarkably increased”.

**Q.** What about the “glycine content relative to control” value (spinach; [4]) of the same compound?
**A.** The value was at least 5 times.

**Q.** What about the “homoserine content relative to control” value (spinach; [4]) of the same compound?
**A.** Its value is at least 5 times.

**Q.** What about the “phenylalanine content relative to control” value (spinach; [4]) of the same compound?
**A.** Its value is at least 5 times.

**Q.** What about the “tyrosine content relative to control” value (spinach; [4]) of the same compound?
**A.** The value was at least 5 times.

**Q.** What about the “asparagine content, ratio to control = 1” value (garland chrysanthemum; 5 mM of GSSG) of the same compound?
**A.** Its value is at least 100 times.

**Q.** What about the “glutamine content, ratio to control = 1” value (garland chrysanthemum; 5 mM of GSSG) of the same compound?
**A.** The value was at least 100 times.

**Q.** What about the “glycine content, ratio to control = 1” value (garland chrysanthemum; 5 mM of GSSG) of the same compound?
**A.** Its value is at least 100 times.

**Q.** And the “histidine content, ratio to control = 1” value (garland chrysanthemum; 5 mM of GSSG)?
**A.** Its value is at least 100 times.

**Q.** And the “homoserine content, ratio to control = 1” value (garland chrysanthemum; 5 mM of GSSG)?
**A.** Its value is at least 100 times.

**Q.** And the “total free amino acid content, ratio to control = 1” value (garland chrysanthemum; 5 mM of GSSG)?
**A.** The value was 24.8 times.

**Q.** And the “total free amino acid content compared with control” value (garland chrysanthemum; GSSG 0.1 mM, 25 mL per pot once a week)?
**A.** Its value is “decreased”.

**Q.** And the “free amino acid contents compared with total free amino acid content under control condition” value (garland chrysanthemum; GSSG 0.2 mM to 5 mM, 25 mL per pot once a week)?
**A.** The value was “increased concentration-dependently”.

**Q.** `N[C@@H](CCC(=O)N[C@@H](CS)C(=O)NCC(=O)O)C(=O)O` [glutathione] was tested. Which “effect on amino acid contents relative to control = 1 (FIG. 8)” value (spinach; low temperature condition (light 20° C./dark 15° C.), observed in part of amino acids) did it give?
**A.** Its value is “small”.

**Q.** And the “effect of increase in amino acid content relative to control = 1 (FIG. 10)” value (Japanese mustard spinach; high temperature condition (light 25° C./dark 20° C.), β-alanine, asparagine, glutamine)?
**A.** The value was “observed in part of amino acids”.
